Assays:
Assay type in all cases: cell-based
E. coli = assay: Minimum inhibitory concentration of ARM-1 alone; conditions: Escherichia coli, constant for 196 hours of exposure
Excerpt: (§1) FIGS. 4A-4C depict how ARM-1 inhibits the evolution of antibiotic resistance. FIG. 4A depicts the minimum inhibitory concentration of ARM-1 in E. coli and S. aureus. FIGS. 4B-4C depict the evolution of indicated species against (FIG. 4B) rifampicin and (FIG. 4C) trimethoprim in the presence of ARM-1. Heatmaps show median MIC over time. Concentrations are indicated to the right of each plot. Each strain and antibiotic is the result of at least 12 biological replicates. Concentration of ARM-1 used against L. monocytogenes, P. aeruginosa, and S. aureus is 100 μM. Concentration of ARM-1 used against S. typhimurium is 50 μM. Populations of bacteria are grown overnight in a series of increasing antibiotic concentrations, with or without ARM-1 present. The following day, the population from the highest tolerated concentration is re-challenged with higher concentrations of antibiotic. […]
(§2) Next, the effect of ARM-1 on the evolution of antibiotic resistance was examined. […] Using an assay previously developed, the impact of ARM-1 was assessed on resistance development across diverse pathogens and in response to multiple classes of antibiotics. […]
(§3) Evolution experiments were performed for the indicated strains. […] Optical densities were subsequently measured in an Epoch2 microplate spectrophotometer (BioTek). […]

S. aureus [1] = assay: Minimum inhibitory concentration of ARM-1 alone; conditions: Staphylococcus aureus, constant for 196 hours of exposure
Excerpt: as §1, §2, §3

S. typhimurium = assay: Evolution assay of antibiotic resistance; conditions: challenged with rifampicin or trimethoprim, or phosphomycin; 50 μM ARM-1
Excerpt: (§4) FIGS. 4A-4C depict how ARM-1 inhibits the evolution of antibiotic resistance. FIG. 4A depicts the minimum inhibitory concentration of ARM-1 in E. coli and S. aureus. FIGS. 4B-4C depict the evolution of indicated species against (FIG. 4B) rifampicin and (FIG. 4C) trimethoprim in the presence of ARM-1. Heatmaps show median MIC over time. Concentrations are indicated to the right of each plot. Each strain and antibiotic is the result of at least 12 biological replicates. Concentration of ARM-1 used against L. monocytogenes, P. aeruginosa, and S. aureus is 100 μM. Concentration of ARM-1 used against S. typhimurium is 50 μM. Populations of bacteria are grown overnight in a series of increasing antibiotic concentrations, with or without ARM-1 present. The following day, the population from the highest tolerated concentration is re-challenged with higher concentrations of antibiotic. The median MIC is determined after each 24 hour growth period as the lowest concentration of antibiotic at which at least 50% growth impairment is observed compared to an untreated population. MIC fold change is reported as the change in MIC from the first day of growth to each subsequent day.
(§5) Next, the effect of ARM-1 on the evolution of antibiotic resistance was examined. Genetic deletion of Mfd is known to reduce the rates and extent of resistance development in laboratory evolution experiments. Using an assay previously developed, the impact of ARM-1 was assessed on resistance development across diverse pathogens and in response to multiple classes of antibiotics. In these experiments, bacteria are challenged with increasing concentrations of antibiotic over a minimum of least 55 generations. Reduced resistance development in bacteria treated with ARM-1 was observed compared to those that were untreated, in all species and antibiotics tested. […] This pattern was also observed in P. aeruginosa, S. aureus, and L. monocytogenes, with ARM-1 treatment resulting in 80, […] reduction in resistance to rifampicin, respectively (FIG. 4B). […] Sequencing of relevant resistance loci over the course of treatment confirmed that these observations are due to genetic changes; many more resistance mutations arise in untreated populations compared to those treated with ARM-1 (Table 1). […] Furthermore, patient isolates of S. typhimurium, S. aureus, and P. aeruginosa which already carry resistance mutations to other antibiotics were used, and still observed a reduction in resistance development during experiments. […]
as §3

P. aeruginosa = assay: Evolution assay of antibiotic resistance; conditions: 100 μM ARM-1, rifampicin
Excerpt: as §4, §5, §3

L. monocytogenes = assay: Evolution assay of antibiotic resistance; conditions: 100 μM ARM-1, rifampicin
Excerpt: as §4, §5, §3

S. aureus [2] = assay: Evolution assay of antibiotic resistance; conditions: 100 μM ARM-1, rifampicin
Excerpt: as §4, §5, §3

Cc1cc(Br)ccc1-c1ccc(CNCCCN(C)C)o1 [ARM-1, N^1-((5-(4-bromo-2-methylphenyl)furan-2-yl)methyl)-N^3,N^3-dimethylpropane-1,3-diamine]
MIC (E. coli): 400 µM
MIC (S. aureus [1]): 400 µM
difference in median MIC fold change between untreated and treated (S. typhimurium): ≥ 100 fold
reduction in resistance to rifampicin (P. aeruginosa): 80 FOLD
reduction in resistance to rifampicin (L. monocytogenes): 1000 FOLD
reduction in resistance to rifampicin (S. aureus [2]): 800 FOLD
